We go through eight molecules from patent US20220031800A1, “PEPTIDES FOR TREATING NON-EXUDATIVE MACULAR DEGENERATION AND OTHER DISORDERS OF THE EYE” (Allegro Pharmaceuticals, LLC, priority 2019, published 2022).

For series [1], the system named is neovascularization in mice (CNV). The following applies: reproduced from US 2019/0062371; cited from earlier work.
Series [2] deals with human retinal Müller cells (MIO-M1). Briefly: MTT cell viability of human Müller cells (MIO-M1). It is filed as cell-based. The following applies: 1× concentration (clinical dose), 24 hours, vs untreated (FIG. 18). The protocol: Purpose: To determine the effects of risuteganib and anti-VEGF drugs on the cell viability of cultured human retinal Müller cells (MIO-M1).
Methods: The immortalized human retinal Müller cell line (MIO-M1) was obtained from the Department of Cell Biology of the University College, London. Cells were cultured in Dulbecco's Modified Eagle's Medium (DMEM) and plated in 96-well plates for 24 hours before treatment with 0.5×, 1× or 2× concentrations of 1 mg/50 μL risuteganib, or 1× of ranibizumab, bevacizumab or aflibercept. Dosage was based on clinical dose of each compound. The experiments were repeated 3 times with 7-8 replicates each. After 24 hours of drug treatment, MTT NAD(P)H-dependent colorimetric assay was used to assess the number of viable cells present in the cultures. Absorbance ratios were normalized to untreated control as 100%. Statistical analysis was performed in GraphPad Prism software program.

The test system is the same in series [3]. The series is described as follows: Reactive oxygen species level in human Müller cells (MIO-M1). The series is classed as cell-based. The following applies: 1× concentration (clinical dose), 24 hours. The protocol:
Purpose: To determine the effects of risuteganib and anti-VEGF drugs on reactive oxygen species (ROS) levels in cultured human retinal Müller cells (MIO-M1). Elevated ROS levels can disrupt normal cellular functions, leading to reduced cell health and possible cell death.
Methods: The immortalized human retinal Müller cell line (MIO-M1) was obtained from the Department of Cell Biology of the University College, London. Cells were cultured in Dulbecco's Modified Eagle's Medium (DMEM) and plated in 24-well plates for 24 hours before treatment with 1× concentration of 1 mg/50 μL ALG-1001, ranibizumab, bevacizumab, or aflibercept. Dosage was based on clinical dose of each compound. The experiments were repeated 3 times with 6 replicates each. After 24 hours drug treatment, ROS level was measured using the fluorescent dye 2′,7′-dichlorodihydrofluorescein diacetate. The signals were read using the Biotek Synergy HT plate reader with EX filter in 482 nm and EM filter in 520 nm. Results were normalized to untreated control as 100%. Statistical analysis was performed in GraphPad Prism software program.

The test system is the same in series [4]. Briefly: Mitochondrial membrane potential (JC-1) in human Müller cells (MIO-M1). The series is classed as cell-based. To be noted: 1× concentration (clinical dose), 24 hours, vs untreated control. The protocol: Purpose: To determine the effects of risuteganib on the mitochondrial membrane potential (ΔΨm) in cultured human retinal Müller cells (MIO-M1). Loss of ΔΨm is a marker for early cell death.
Methods: The immortalized human retinal Müller cell line (MIO-M1) was obtained from the Department of Cell Biology of the University College, London. Cells were cultured in Dulbecco's Modified Eagle's Medium (DMEM) and plated in 24-well plates for 24 hours before treatment with 1× concentration of 1 mg/50 μL risuteganib, ranibizumab, bevacizumab, or aflibercept. Dosage was based on clinical dose of each compound. The experiments were repeated 3 times with 6 replicates each. After 24 hours drug treatment, the ΔΨm was measured using the JC-1 kit, a cationic dye that fluoresces red within the mitochondria of healthy, live cells. In the stressed or apoptotic cells, the mitochondrial membrane potential collapses and the cationic dye fluoresces green. First, cells were rinsed with fresh media and then incubated with the JC-1 reagent for 15 minutes at 37 degrees C. The dyes were then removed, and phosphate buffered saline was added to each well. The Red fluorescence (live cells) was read at EX 550 nm and EM 600 nm. The Green fluorescence (apoptotic cells) was read at EX 483 nm and EM 535 nm. The changes in ΔΨm were calculated by the ratio of red to green fluorescence. […]

Series [5] in a line: Trypan blue viability of human RPE cells (ARPE-19) exposed to hydrogen peroxide. The following applies: human, ARPE-19 cells (human RPE cells); 100 μM H2O2 alone, 8 hours; read-out: Reduction of cell viability. It is filed as cell-based. The protocol:
Purpose: Investigate cytoprotective properties of risuteganib in human RPE cells (ARPE-19) exposed to hydrogen peroxide, which is a reactive oxygen species that can induce cell death at elevated levels. Methods: ARPE-19 cells were cultured in laminin-coated trans-wells for 2 weeks to induce differentiation. Cells were then exposed to the experimental conditions: […]

Series [6] has as its system primary human RPE cells. Briefly: WST-1 cell viability of primary human RPE cells exposed to hydroquinone. The series is classed as cell-based. To be noted: HQ 125-180 uM, 4 hours or 5 hours. Here is the method:
(§1) Purpose: To determine if risuteganib protects against hydroquinone (HQ)-mediated cell injury, elevated ROS level and reduced mitochondrial membrane potential (Δψm) in cultured human RPE cells. Elevated ROS levels increase oxidative stress in the cells, leading to reduced cell health and cell death. Loss of ΔΨm is a marker for early cell death. Methods: Primary human RPE cells were seeded on collagen-coated 96-well plates in triplicates at 8K, 10K and […] cells/well, respectively. Cells reached 80% to 100% confluence 24 hours after plating, and confluent cells were then grown for an additional 4 or 5 days until growth was density arrested. On day 6 after plating, cells in the plate upper half were loaded with 20 μM CM-H2DCFDA (measures ROS level) and in the plate lower half with 10 μM JC-1 (measures Δψm) for 30 minutes at 37° C. […] For the ROS and Δψm assays, a fluorescence plate reader was used to quantify ROS production (490-nm excitation, 522-nm emission), and green monomer of JC-1 (490-nm excitation, 522-nm emission) and red JC-1 aggregate (535-nm excitation, 590-nm emission), respectively. […] The WST reagent was quantified with a plate reader at 440 nm and a reference wavelength at 690 nm. Data were normalized to untreated control as 100% and were expressed as the mean±SD.
In general terms: Formazan colour is commonly taken as a measure of viable cells.

For series [7], the system named is primary human RPE cells. Briefly: Mitochondrial membrane potential (JC-1) in primary human RPE cells exposed to hydroquinone. To be noted: HQ 125-180 uM, 3-4 hours. It is filed as cell-based. Here is the method: as §1
For series [8], the system named is primary human RPE cells. The series is described as follows: ROS level (CM-H2DCFDA) in primary human RPE cells exposed to hydroquinone. The series is classed as cell-based. To be noted: HQ 125-180 uM, 3-4 hours. The protocol:
as §1

Series [9] is described as follows: Trypan blue viability of primary mouse retinal neuron cells exposed to kainic acid. It is filed as cell-based, CD1 mice. To be noted: CD1, mouse; 500 μM kainic acid alone, 8 hours; read-out: Reduction of cell viability. Here is the method: Purpose: Investigate neuroprotective properties of risuteganib in primary mouse retinal neuron cells exposed to kainic acid, a neuroexcitatory compound that activates glutamate receptors, resulting in overstimulation and cell death.
Methods: Fresh retina were collected from CD1 mice and then mechanically dissociated with sterile Pasteur pipette. Cell suspensions were then dispensed into petri dish and incubated for 6 hours. Cells were then exposed to the experimental conditions: (1) untreated control, (2) 1.0 mg/mL risuteganib, (3) 500 μM kainic acid (KA), and (4) 1.0 mg/mL risuteganib for 24 hours before 500 μM kainic acid exposure. 8 hours after kainic acid treatment, dead and live cell numbers were measured using Trypan blue exclusion assay on a hemocytometer.

Series [10] in a line: Trypan blue viability of primary mouse Müller cells exposed to kainic acid. It is filed as cell-based, CD1 mice. To be noted: CD1, mouse; 500 μM kainic acid alone, 48 hours; read-out: Reduction of Muller cell viability. From the text: Purpose: Investigate neuroprotective properties of risuteganib in primary mouse Müller cells exposed to kainic acid, a neuroexcitatory compound that activates glutamate receptors, resulting in overstimulation and cell death. Retinal Müller cells support normal functions of neurons and their dysregulation can leads to loss of homeostasis and neuronal cell death.
Methods: Fresh retina were collected from CD1 mice and then mechanically dissociated with sterile Pasteur pipette into small aggregates and seeded into 35 mm culture dishes. All cultures were first left unchanged for 5-6 days and then replenished every 3-4 days. When the cell growth had reached around 80% confluency, retinal aggregates and debris were removed by media washes to form a purified cell monolayer. Cells were then exposed to the experimental conditions: (1) untreated control, (2) 1.0 mg/mL risuteganib, (3) 500 μM kainic acid (KA), and (4) 1.0 mg/mL risuteganib for 24 hours before 500 μM kainic acid exposure. 48 hours after kainic acid treatment, dead and live cell numbers were measured using Trypan blue exclusion assay on a hemocytometer.

In the case of R - G - Cys(acid)•TFA [Test Compound 1], in series [1], the “Activity At Dose Tested” value is “Active” and the “Mean % Reduction of Retinal Neovascularization In ROP Model” value is reported as 49 - FIG. 11%.
As to “R- G - Cys(acid)•Acetate [Test Compound 2]”, in series [1], the “Activity At Dose Tested” value was “Active” and the “Mean % Reduction of Retinal Neovascularization In ROP Model” value was 56 - FIG. 11%.
For the molecule aflibercept [reference compound], the “Cell viability (MTT), in words” value in series [2] was “decreased cell viability”. For the same molecule, the “Change in ROS level compared to untreated control” value (shortened to “Change in ROS level”) in series [3] is recorded as 29%. The “Mitochondrial membrane potential (ΔΨm), in words” value in series [4] is listed as “decreased ΔΨm”.
On to `OO` [H2O2, hydrogen peroxide, reference compound], for which the cytotoxicity at 8 h, 100 μM in [5] worked out at 22%.
Turning to `Oc1ccc(O)cc1` [HQ, hydroquinone, reference compound], in the series with primary human RPE cells [6], the “Change in cell viability compared to untreated cells” value was −82%. In the series with primary human RPE cells [7], the “Change in Δψm compared to untreated cells” value is −53%. In addition, the “Increase in ROS levels compared to untreated cells” value with primary human RPE cells [8] was 78%.
As to `C=C(C)[C@H]1CN[C@H](C(=O)O)[C@H]1CC(=O)O` [kainic acid, reference compound], the cytotoxicity at 8 h, 500 μM in [9] came out at 42%. For the same molecule, in series [10], the cytotoxicity at 48 h, 500 μM was 32%.
Regarding bevacizumab [reference compound], the “Cell viability (MTT), in words” value in series [2] was “decreased cell viability”. Moreover, the “Change in ROS level” value in series [3] came to 24%.

B1: ranibizumab (antibody, chains of the INN, looked up, V domains shown)
VH: EVQLVESGGGLVQPGGSLRLSCAASGYDFTHYGMNWVRQAPGKGLEWVGWINTYTGEPTYAADFKRRFTFSLDTSKSTAYLQMNSLRAEDTAVYYCAKYPYYYGTSHWYFDVWGQGTLVTVSS
VL: DIQLTQSPSSLSASVGDRVTITCSASQDISNYLNWYQQKPGKAPKVLIYFTSSLHSGVPSRFSGSGSGTDFTLTISSLQPEDFATYYCQQYSTVPWTFGQGTKVEIK
notes: anti-VEGF agent
Regarding B1, the “Cell viability (MTT), in words” value in series [2] is listed as “decreased cell viability”. For the same molecule, the “Change in ROS level” value in [3] was 37%.
